Literature values in patent US10966913B2, “Cosmetic use of spiculisporic acid as a deodorant active agent” (L'OREAL, priority 2014, dated 2021).

Details: room temperature

solubility in ethanol: soluble | solubility in fatty substances: insoluble | solubility in water: insoluble
SMILES: CCCCCCCCCCC(C(=O)O)C1(C(=O)O)CCC(=O)O1 (stereo not drawn) [spiculisporic acid, 4,5-dicarboxy-4-pentadecanolide]
